In ChEMBL document CHEMBL1201862, “PubChem BioAssay data set” (2004):
Active and inactive are the calls of the source.

Key:
CAAX prenyl protease 2 = target: T1, CAAX prenyl protease 2 (Saccharomyces cerevisiae S288c, UniProt Q03530); type: biochemical
T1 sequence (Q03530 whole entry): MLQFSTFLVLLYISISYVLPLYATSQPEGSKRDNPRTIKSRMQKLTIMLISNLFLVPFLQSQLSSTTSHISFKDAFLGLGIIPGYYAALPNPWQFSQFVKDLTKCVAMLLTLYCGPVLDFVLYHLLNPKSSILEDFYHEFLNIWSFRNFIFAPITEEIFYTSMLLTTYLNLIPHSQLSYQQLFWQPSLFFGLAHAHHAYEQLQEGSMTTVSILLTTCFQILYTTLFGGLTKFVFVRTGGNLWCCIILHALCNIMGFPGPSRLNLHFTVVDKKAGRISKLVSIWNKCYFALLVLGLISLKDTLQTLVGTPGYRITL

[1] = target: 5-hydroxytryptamine receptor 5A (Homo sapiens, UniProt P47898); assay: Counterscreen for agonists of OPRM1-OPRD1 heterodimerization: luminescence-based cell-based high throughput dose response assay to identify agonists of 5-hydroxytryptamine (serotonin) 5A receptor (HTR5A). [Related pubchem assays (depositor defined):AID504326, AID504355, AID504692, AID504904, AID504905]; type: functional
Chain of 5-hydroxytryptamine receptor 5A (P47898 whole entry): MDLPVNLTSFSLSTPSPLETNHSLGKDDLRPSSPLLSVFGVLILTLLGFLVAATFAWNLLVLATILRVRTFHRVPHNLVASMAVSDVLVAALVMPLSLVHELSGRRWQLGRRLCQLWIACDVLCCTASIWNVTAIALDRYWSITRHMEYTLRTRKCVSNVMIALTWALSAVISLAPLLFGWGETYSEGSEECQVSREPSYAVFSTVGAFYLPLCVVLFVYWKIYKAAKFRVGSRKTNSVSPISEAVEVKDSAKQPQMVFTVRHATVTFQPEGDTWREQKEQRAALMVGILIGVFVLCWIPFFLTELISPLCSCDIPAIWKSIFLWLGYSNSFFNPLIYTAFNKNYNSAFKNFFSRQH

[2] = target: Alkaline phosphatase, tissue-nonspecific isozyme (Homo sapiens, UniProt P05186)
Chain of Alkaline phosphatase, tissue-nonspecific isozyme (P05186 whole entry): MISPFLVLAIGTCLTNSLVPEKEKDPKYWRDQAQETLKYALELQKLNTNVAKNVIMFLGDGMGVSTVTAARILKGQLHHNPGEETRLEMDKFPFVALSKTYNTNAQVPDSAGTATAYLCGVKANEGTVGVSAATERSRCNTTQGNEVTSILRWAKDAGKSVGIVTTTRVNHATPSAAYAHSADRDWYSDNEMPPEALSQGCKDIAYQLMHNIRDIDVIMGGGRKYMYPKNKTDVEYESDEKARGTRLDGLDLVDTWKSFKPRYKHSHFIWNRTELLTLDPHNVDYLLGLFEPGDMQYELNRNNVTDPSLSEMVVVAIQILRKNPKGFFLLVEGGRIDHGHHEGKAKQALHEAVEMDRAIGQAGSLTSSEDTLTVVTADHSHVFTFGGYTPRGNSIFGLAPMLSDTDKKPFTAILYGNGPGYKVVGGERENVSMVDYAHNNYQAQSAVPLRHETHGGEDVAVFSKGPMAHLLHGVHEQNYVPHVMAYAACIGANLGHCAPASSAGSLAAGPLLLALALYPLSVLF

[3] = target: Voltage-gated N-type calcium channel alpha-1B subunit/Amyloid beta A4 precursor protein-binding family A member 1 (Homo sapiens, UniProt Q00975+Q02410); type: protein assay
Chain of Voltage-gated N-type calcium channel alpha-1B subunit/Amyloid beta A4 precursor protein-binding family A member 1 (Q00975 whole entry): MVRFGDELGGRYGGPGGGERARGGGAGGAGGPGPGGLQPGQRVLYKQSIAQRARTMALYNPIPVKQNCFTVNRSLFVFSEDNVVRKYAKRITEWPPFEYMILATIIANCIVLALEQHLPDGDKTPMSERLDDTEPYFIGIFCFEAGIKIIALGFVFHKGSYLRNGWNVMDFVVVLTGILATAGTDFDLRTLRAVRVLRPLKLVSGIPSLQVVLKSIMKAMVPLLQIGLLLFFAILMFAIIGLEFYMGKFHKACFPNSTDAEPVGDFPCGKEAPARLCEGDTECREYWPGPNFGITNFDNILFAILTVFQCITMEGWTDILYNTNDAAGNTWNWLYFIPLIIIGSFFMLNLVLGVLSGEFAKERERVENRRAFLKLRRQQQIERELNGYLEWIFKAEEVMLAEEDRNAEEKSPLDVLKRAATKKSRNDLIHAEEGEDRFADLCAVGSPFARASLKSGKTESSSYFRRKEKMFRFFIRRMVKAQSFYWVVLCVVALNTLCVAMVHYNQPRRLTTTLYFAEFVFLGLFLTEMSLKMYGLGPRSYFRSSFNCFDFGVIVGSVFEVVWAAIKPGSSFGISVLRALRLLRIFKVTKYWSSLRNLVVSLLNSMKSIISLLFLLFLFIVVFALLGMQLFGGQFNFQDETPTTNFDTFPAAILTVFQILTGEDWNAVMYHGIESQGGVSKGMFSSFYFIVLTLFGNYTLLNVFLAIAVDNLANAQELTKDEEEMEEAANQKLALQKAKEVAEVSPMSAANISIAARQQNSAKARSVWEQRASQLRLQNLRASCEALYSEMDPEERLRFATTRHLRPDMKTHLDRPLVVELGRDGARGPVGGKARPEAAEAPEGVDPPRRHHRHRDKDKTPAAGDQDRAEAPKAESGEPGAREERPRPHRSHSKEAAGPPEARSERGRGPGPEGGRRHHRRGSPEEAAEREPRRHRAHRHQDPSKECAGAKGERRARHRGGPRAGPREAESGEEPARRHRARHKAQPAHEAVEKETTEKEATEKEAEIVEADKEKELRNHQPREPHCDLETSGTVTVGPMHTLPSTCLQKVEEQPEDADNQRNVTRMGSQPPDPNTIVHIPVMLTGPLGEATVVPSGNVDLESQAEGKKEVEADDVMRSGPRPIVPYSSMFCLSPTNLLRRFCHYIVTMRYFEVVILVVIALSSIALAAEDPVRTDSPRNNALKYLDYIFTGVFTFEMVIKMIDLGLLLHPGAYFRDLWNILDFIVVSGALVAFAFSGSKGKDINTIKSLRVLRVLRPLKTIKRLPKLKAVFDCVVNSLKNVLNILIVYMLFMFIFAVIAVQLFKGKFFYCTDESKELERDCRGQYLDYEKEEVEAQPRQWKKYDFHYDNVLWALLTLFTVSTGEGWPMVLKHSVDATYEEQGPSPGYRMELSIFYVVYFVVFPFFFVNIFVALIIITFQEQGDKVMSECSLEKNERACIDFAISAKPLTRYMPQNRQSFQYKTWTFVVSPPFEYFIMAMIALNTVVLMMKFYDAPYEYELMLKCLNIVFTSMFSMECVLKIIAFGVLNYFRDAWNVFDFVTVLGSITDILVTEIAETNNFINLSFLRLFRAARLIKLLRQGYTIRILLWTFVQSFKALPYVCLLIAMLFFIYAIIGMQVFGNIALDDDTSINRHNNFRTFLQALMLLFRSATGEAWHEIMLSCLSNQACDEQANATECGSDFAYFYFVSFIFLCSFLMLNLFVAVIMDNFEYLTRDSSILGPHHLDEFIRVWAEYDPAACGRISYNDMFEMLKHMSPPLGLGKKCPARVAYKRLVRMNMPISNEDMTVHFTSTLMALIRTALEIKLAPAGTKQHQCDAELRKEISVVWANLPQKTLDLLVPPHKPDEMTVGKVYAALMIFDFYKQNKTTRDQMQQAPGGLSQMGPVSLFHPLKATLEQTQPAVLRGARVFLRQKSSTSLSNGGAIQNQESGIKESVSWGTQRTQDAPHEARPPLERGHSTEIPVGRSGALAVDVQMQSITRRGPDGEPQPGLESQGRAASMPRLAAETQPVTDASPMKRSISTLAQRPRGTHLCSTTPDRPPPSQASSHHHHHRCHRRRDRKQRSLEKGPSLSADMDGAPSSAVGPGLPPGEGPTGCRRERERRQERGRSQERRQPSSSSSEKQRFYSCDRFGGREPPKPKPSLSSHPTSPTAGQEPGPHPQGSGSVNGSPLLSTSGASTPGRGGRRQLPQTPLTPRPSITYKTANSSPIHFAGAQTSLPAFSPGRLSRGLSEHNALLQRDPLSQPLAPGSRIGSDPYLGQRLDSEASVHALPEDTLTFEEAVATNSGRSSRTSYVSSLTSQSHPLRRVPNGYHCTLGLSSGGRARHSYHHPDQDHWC
Chain of Voltage-gated N-type calcium channel alpha-1B subunit/Amyloid beta A4 precursor protein-binding family A member 1 (Q02410 whole entry): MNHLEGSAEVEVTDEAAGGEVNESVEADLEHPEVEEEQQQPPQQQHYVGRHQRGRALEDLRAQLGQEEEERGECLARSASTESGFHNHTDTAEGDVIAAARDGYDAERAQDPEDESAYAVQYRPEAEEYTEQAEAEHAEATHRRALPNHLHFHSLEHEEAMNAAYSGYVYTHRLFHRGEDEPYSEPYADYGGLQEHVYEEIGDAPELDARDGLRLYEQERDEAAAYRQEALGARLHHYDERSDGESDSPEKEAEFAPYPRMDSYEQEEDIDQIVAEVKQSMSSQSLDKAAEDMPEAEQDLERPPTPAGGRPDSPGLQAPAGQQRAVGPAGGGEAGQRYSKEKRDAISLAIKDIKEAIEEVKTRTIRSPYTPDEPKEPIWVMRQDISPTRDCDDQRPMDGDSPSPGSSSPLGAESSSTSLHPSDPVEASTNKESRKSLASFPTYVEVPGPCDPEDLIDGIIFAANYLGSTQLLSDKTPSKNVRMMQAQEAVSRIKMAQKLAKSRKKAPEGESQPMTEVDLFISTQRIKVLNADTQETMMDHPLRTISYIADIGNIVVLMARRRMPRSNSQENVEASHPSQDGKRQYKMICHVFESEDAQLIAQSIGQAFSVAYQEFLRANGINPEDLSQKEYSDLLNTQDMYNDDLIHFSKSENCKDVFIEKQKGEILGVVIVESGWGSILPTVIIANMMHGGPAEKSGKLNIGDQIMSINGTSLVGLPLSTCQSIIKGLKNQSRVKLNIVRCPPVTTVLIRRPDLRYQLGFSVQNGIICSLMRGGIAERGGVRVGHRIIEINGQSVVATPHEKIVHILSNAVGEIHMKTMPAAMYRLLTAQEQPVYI

Beta-lactamase = Beta-lactamase (Salmonella choleraesuis (strain SC-B67), UniProt Q5J463)
Chain of Beta-lactamase (Q5J463 whole entry): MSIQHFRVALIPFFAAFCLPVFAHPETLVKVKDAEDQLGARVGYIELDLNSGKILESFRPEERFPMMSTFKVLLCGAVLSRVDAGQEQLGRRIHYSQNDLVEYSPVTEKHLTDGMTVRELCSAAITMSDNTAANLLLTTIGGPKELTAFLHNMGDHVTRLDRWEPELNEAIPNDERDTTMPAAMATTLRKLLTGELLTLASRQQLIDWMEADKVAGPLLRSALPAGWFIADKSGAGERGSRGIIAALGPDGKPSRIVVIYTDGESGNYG

[4] = target: T2, Mannose-6-phosphate isomerase (Homo sapiens, UniProt P34949); assay: MPI inhibition at elevated mannose 6-phosphate – biochemical, fluorescence intensity, high mannose 6-phosphate, primary screen (AID 1220)
T2 sequence (P34949 whole entry): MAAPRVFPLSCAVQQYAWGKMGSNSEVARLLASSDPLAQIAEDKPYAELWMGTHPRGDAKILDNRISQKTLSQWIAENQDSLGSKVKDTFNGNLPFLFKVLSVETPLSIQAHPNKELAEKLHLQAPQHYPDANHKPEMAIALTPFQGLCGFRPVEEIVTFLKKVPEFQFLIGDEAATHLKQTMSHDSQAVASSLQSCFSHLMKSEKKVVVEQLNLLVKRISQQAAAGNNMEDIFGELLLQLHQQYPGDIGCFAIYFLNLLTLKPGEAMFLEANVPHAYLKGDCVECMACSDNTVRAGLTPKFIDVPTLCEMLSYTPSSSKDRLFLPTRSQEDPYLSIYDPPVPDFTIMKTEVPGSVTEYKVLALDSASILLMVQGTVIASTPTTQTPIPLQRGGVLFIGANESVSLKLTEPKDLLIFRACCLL

Insulin-degrading enzyme [5] = target: T3, Insulin-degrading enzyme (Homo sapiens, UniProt P14735); assay: recombinant IDE activation, cell-free – biochemical, fluorescence polarization, counter-screen for IDE activator project, dose response (AID 588681)
T3 sequence (P14735 whole entry): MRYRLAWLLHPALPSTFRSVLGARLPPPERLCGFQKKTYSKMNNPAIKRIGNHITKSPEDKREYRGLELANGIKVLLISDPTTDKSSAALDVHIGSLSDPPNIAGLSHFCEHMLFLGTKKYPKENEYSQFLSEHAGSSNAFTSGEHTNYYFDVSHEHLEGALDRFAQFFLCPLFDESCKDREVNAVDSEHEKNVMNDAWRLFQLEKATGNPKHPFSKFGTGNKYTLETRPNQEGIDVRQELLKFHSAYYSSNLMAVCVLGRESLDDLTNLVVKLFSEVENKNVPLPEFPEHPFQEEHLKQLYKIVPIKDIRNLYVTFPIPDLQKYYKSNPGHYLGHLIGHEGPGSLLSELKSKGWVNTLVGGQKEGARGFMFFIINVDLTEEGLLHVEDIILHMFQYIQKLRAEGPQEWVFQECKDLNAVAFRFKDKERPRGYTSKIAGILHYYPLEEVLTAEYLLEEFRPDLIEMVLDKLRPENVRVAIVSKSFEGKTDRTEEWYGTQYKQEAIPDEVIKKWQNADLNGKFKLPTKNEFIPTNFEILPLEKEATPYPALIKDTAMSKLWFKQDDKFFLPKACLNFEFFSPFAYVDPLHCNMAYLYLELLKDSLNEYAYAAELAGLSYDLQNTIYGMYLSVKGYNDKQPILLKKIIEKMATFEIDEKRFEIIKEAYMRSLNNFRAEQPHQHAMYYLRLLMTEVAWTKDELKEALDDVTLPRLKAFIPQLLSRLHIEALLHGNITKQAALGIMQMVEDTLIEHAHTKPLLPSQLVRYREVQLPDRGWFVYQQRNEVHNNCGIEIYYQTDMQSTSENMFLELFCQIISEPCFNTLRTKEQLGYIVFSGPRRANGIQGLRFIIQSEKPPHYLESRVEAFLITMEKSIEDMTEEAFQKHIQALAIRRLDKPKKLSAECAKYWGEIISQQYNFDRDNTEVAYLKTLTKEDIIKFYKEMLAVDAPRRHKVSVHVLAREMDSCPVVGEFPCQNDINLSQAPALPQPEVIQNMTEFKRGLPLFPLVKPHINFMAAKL

Insulin-degrading enzyme [6] = target: T3, Insulin-degrading enzyme; assay: cellular IDE activation of Abeta substrate cleavage – fluorescence polarization, HEK cells, dose response (AID 588439); type: functional, cell-based
HEK293 = assay: optical interference in Abeta FP readout, dose response, artefact control for IDE activator project, biochemical, fluorescence polarization (AID 588442); type: functional, cell-based; conditions: Homo sapiens

| SMILES | AC50 (CAAX prenyl protease 2) | EC50 [1] | EC50 [2] | IC50 [3] | IC50 (Beta-lactamase) | IC50 [4] | EC50 (Insulin-degrading enzyme [5]) | EC50 (Insulin-degrading enzyme [6]) | EC50 (HEK293) |
| --- | --- | --- | --- | --- | --- | --- | --- | --- | --- |
| CCCCCCCCCCOC(=O)C[n+]1c(COc2ccccc2C)n(C)c2ccccc21 | 8.72 µM (active) | > 92.5 µM (inactive) |  |  |  |  |  |  |  |
| COc1cc(OC)c(-c2c3cc(O)c(=O)cc-3oc3cc(O)c(O)cc23)cc1OC |  |  | > 100 µM (not active) | > 50 µM (inactive) | 2.13 µM (active) | > 50 µM (not active) | > 54.7 µM (inactive) | > 54.7 µM (inactive) | > 6.21 µM (active) |
